Measured values published in patent US10959984B2, “Methods for treating cancer with RORγ inhibitors” (THE REGENTS OF THE UNIVERSITY OF CALIFORNIA, priority 2015, dated 2021).

Key:
AR-positive PCa cells = assay: Prostate cancer cell growth and survival (cell viability / cell growth); type: cell-based, human
Experimental: (§1) For cell viability, cells were seeded in 96-well plates at 1500-2500 cells per well (optimum density for growth) in a total volume of 100 μl media. Serially diluted compounds in […] of media were added to the cells 12 hours later. After 4 days of incubation, Cell-Titer GLO reagents (Promega) were added and luminescence was measured on GLOMAX microplate luminometer (Promega), according to the manufacturer's instructions. All experimental points were set up as sextuplicate as biological replication and the entire experiments were repeated three times. The data are presented as percentage of viable cells with vehicle treated cells set as 100. The estimated in vitro IC50 values were calculated using GraphPad Prism 6 software.
(§2) For apoptosis, Terminal deoxynucleotidyl transferase-mediated dUTP nick end labeling (TUNEL) was performed by using in situ cell death detection kit (Roche) as previously described^56. The results are expressed as a percentage of apoptotic cell number/total cell number. Caspase-3/7 activity was measured using a luminescent caspase-Glo 3/7 assay kit (Promega Corporation, Madison, USA) following the manufacturer's instructions. For cell growth, cells were seeded in 6-well plates at 2×10^5 per well and treated as indicated. Total viable cell numbers were counted using a Coulter cell counter. For colony formation, 800 cells were seeded in a well of 6-well plates and cultured for 14 days with the medium changed every 3 days. When the cell clone grew visible, the medium was removed and the cells were fixed with […] formalin for 10 minutes. Then the plates were washed with PBS for two times and the cell colonies were stained with 0.2% crystal violet (in 10% formalin) for 15 minutes. The numbers of cell colonies were counted after washed 5 times by PBS. The above assays were performed in triplicates and the entire experiments were repeated three times.

AR-negative PCa cells = assay: Prostate cancer cell growth and survival, AR-negative cells; type: cell-based, human
Experimental: as §1, §2

AR and AR-V7 = assay: AR and AR variant expression (immunoblotting, qRT-PCR); type: cell-based, human
Experimental: Total RNA was isolated from cells in 6-well or 10-cm plates or from xenograft tumors, and the cDNA was prepared, amplified and measured in the presence of SYBR as previously^49. Briefly, the fluorescent values were collected and a melting curve analysis was performed. Fold difference was calculated as described previously^49. The experiments were performed at least three times with data presented as mean values±s.d. Cell lysates were analyzed by immunoblotting with antibodies specifically recognizing RORγ, AR, AR-V7 and the indicated proteins. The PCR primers and all the antibodies used in this study are described in the Tables 3 and 4.

LNCaP cells = assay: Cell viability (Cell-Titer GLO), 4 days; type: cell-based; conditions: Homo sapiens, 96 h, treated for 4 days, read-out: IC50 (growth inhibition)
Experimental: as §1

C4-2B and 22Rv1 cells [1] = assay: Colony formation, 14 d; type: cell-based, human
Experimental: as §2

VCaP xenograft tumors = assay: Spontaneous metastasis of VCaP xenografts (Alu-qPCR); type: in vivo, mice; conditions: treated 23 d
Experimental: FIGS. 28A-28C show the in vivo effects of RORγ inhibition on tumor metastasis, mouse body weight and organ weight in xenograft models. FIG. 28A: Mice bearing VCaP xenografts as in FIG. 11D, treated with vehicle, SR2211, ENZ or combination for 23 d, were assessed for spontaneous metastasis to the femur (bone marrow) and liver. Genomic DNA isolated from these sites was analyzed for metastasized cells by measuring human Alu sequence (by Alu-qPCR). FIG. 28B: Body weight of mice from different treatment groups. FIG. 28C: Weight of indicated tissues from mice treated with vehicle or SR2211 for 24 days as in FIG. 11A of C4-2B xenograft model. Significance was calculated using Student's t-test, *p=0.01, n=6.

C4-2B and 22Rv1 cells [2] = assay: Apoptosis (caspase-3/7 activity, TUNEL); type: cell-based, human
Experimental: as §2

CRPC-VCaP xenografts = assay: Castration-resistant VCaP (CRPC-VCaP) xenograft tumor growth; type: in vivo; conditions: castrated mice, SR2211 alone, 5 mg/kg i.p.
Experimental: Four-week-old male SCID C.B17 mice (for C4-2B and VCaP) or BALB/c nu/nu athymic mice (for 22Rv11 and PC-3) were purchased from Harlan Inc. For establishing tumors, 2×10^6 cells were suspended in total of 100 μL PBS/Matrigel (1:1) and implanted subcutaneously into the dorsal flank on both sides of the mice. Animal group size of six or more was estimated to have a high statistic power, based on power calculation (http://www.biomath.info/power/) and previous studies involving the same xenograft models^34,68. When the tumor volume was approximately 80 mm^3, the mice were randomized and then treated intraperitoneally (i.p.) with 100 μl of either vehicle or RORγ antagonists SR2211, XY011/8k (in a formulation of 15% Cremophor EL, Calbiochem, 82.5% PBS, and 2.5% DMSO) for five times per week. Tumor growth was monitored by calipers with volume calculated using the equation: (π/6 (length×width2)). Body weight during the course of the study was also monitored. At the end of the studies mice were killed and tumors were dissected and weighed. Additionally, prostate, seminal vesicle, testis, kidney, heart, lung, liver, epididymal fat pad and spleen were harvested and weighed. To assess the effect of combining RORγ antagonists and ENZ on the growth of castrated-resistant VCaP xenografts (CRPC-VCaP), first, SCID C.B17 mice were injected with VCaP cells as above to establish the tumors. […]

[3] = system: H3K4me3 and H3K27ac at the RORE site and AR promoter; assay: ChIP-qPCR at the AR-RORE site and AR promoter; type: cell-based, human; conditions: C4-2B cells, 5 μM, 24 h
Experimental: ChIP-qPCR analysis was performed as described previously^49. The antibodies used for ChIP assay are AR (Santa Cruz; sc-815); RNA Pol-II (Santa cruz; sc-899); H3K4me2 (Abcam ab32356); H3K4me3 (Abcam; ab8580); H3K27ac (Abcam; ab4729); H3 (Active Motif; #39163); p300 (Santa Cruz; sc-585); SRC-1 (Santa Cruz; sc-8995); SRC-3/ACTR^64, and IgG (Santa Cruz; sc-2027). PCR primers used in the ChIP assays were listed in the Supplementary table 2. ChiPs were performed with each experimental point in triplicate, and each experiment was repeated three times.

IC50 (LNCaP cells): 1500 nM
Structure (SMILES): OC(c1ccc(-c2ccc(CN3CCN(Cc4ccncc4)CC3)cc2)c(F)c1)(C(F)(F)F)C(F)(F)F [SR2211, 2-Fluoro-4′-[[4-(4-pyridinylmethyl)-1-piperazinyl]methyl]-a,a-bis (trifluoromethyl)-[1,1′-biphenyl]-4-methanol]
growth inhibition in other AR-positive PCa cell models (AR-positive PCa cells; 22Rv1, VCaP, LNCaP, LAPC4 and PC346C): strong growth inhibition | inhibition of AR-positive PCa cell growth and survival (AR-positive PCa cells; different cell line models): potent inhibition of AR-positive PCa cell growth and survival | inhibition of cell growth and survival in AR-negative cells (AR-negative PCa cells): not in the AR-negative cells | expression of AR and AR-V7 (AR and AR-V7; C4-2B and VCaP cells, 72 h): potently inhibited the expression of AR and AR-V7 in a dose-dependent manner | AR expression (AR and AR-V7; C4-2B cells, 5 μM, 24 hours): significant but incomplete suppression of AR expression | AR (full-length and spliced variants such as ARV7) mRNA and protein expression (AR and AR-V7; qRT-PCR and Western blotting, PCa cells): strongly inhibited the expression of AR | colony formation (C4-2B and 22Rv1 cells [1]): poor colony formation | metastasis to femur bone and liver (VCaP xenograft tumors): strongly inhibited the metastasis to femur bone and liver | apoptosis (C4-2B and 22Rv1 cells [2]): marked apoptosis | CRPC tumor growth (CRPC-VCaP xenografts): very potent in inhibition of the CRPC tumor growth | gene activating marks H3K4me3 and H3K27ac at the RORE site and AR promoter [3]: strongly reduced
